Results published in patent US20150284362A1, “CARBAZOLE-CONTAINING AMIDES, CARBAMATES, AND UREAS AS CRYPTOCHROME MODULATORS” (ReSet Therapeutics, Inc., priority 2014, published 2015).

How the values were obtained:
[1] = test system: core clock gene mRNAs in liver; assay: Four day study, liver core clock gene mRNA, ICR mice; assay type: in vivo, mouse; conditions: 50 mg/kg PO BID 4 days, ZT6
Description: Male ICR mice (weighing 30-35 g), obtained from Charles River Laboratories (Hollister, Calif.), were used for the experiment following at least 3 days of acclimation. Mice were dosed with vehicle (WFI or 10% Kolliphor) or compound (50 mg/kg, dose volume 5 mL/kg, PO) for 4 days BID (twice a day), beginning in the afternoon of the first day. The last dose of compound or vehicle was administered on the morning of harvest. On the day of harvest (6 hours following the final dose), mice were euthanized by CO2 asphyxiation and 50 mg of liver tissue was excised and placed in a tube containing 500 μl of RNA later.
E.Z.N.A.® HP Total RNA Isolation Kits (R6812-01 and the protocol described in the Manual, Revised 2010) were utilized to prepare and isolate RNA from the liver samples. To prepare the RNA samples, 10-30 mg of sample was removed from RNA-Later and placed in a 1.5 ml microfuge tube. […] The cleared supernatant was transferred by pipetting to a DNA Clearance Column Pre-inserted in a 2 mL Collection Tube. The assembled column was centrifuged at 13,000×g for 1 minute, and the flow-through was saved. An equal volume (700 μl) of 70% ethanol was added to the lysate and mixed. The sample was then applied to a HiBind RNA spin column placed into a 2 ml collection tube, which was centrifuged at 10,000×g for 60 seconds at room temperature. RNA Wash Buffer I (250 μl) was added by pipetting directly onto a new HiBind RNA column inserted in a 2 ml collection tube. The assembled column was centrifuged at 10,000×g for 60 seconds. The RNA column was placed into a new 2 ml collection tube. […] The column with bound RNA was incubated at room temperature (25-30° C.) for 15 minutes. RNA Wash Buffer I (500 μl) was added to the column and placed on a bench top for 2 minutes. After centrifuging at 10,000×g for 60 seconds, discarding the flow-through, 500 μl of RNA Wash Buffer II was added and centrifuged at 10,000×g for 60 seconds. Another 500 μl of RNA Wash Buffer II was added and the column assembly was centrifuged at 10,000×g for 60 seconds. The column was centrifuged for 2 minutes at maximum speed to completely dry the HiBind matrix. The column was placed in a clean 1.5 ml microcentrifuge tube and 40-70 μl of molecular biology grade water is added. After sitting for 1 minute, the column was centrifuged for 2 minutes at maximum speed to elute the RNA. The isolated RNA was collected into the collection tube.
RediPlate 96 RiboGreen RNA Quantification Kit (Invitrogen) RediPlate standard curve was prepared by transferring 20 μl reconstituted RNA standard to a RediPlate well reconstituted in 180 μl RediPlate TE buffer. For liver RNAs prepared from 30-100 mg of tissue using a kit similar to the Omega Bio-Tek HP Total RNA Kit and eluted in RNAse-free water in a volume of 50 μl (microliters), 5 μl of the total RNA is diluted in 195 μl of RediPlate TE buffer (1:40 dilution of RNA), mix. […] Alternatively, one can use the FlexStation 3 with Ex 488 nm and Em 525 nm and a Cutoff of 515 nm.

C57/Bl6J DIO mice [2] = assay: 7 day dosing in diet-induced obesity (DIO) mouse model of type II diabetes; assay type: in vivo; conditions: 30 mg/kg PO QD 7 days (positive control)
Excerpt: (§1) Male C57/Bl6J DIO mice were obtained from The Jackson Laboratory (Sacramento, Calif.). […] Animals were accustomed to these conditions for at least 2 weeks before experimentation and used at approximately 24 weeks of age.
(§2) Significance was accepted when p<0.05.

C57/Bl6J DIO mice [3] = assay: Increasing dosages of Compound 72 over 7 days in diet-induced obesity (DIO) mouse model; assay type: in vivo; conditions: 30 mg/kg PO QD 7 days
Excerpt: as §1, §2
Male C57/Bl6J DIO mice were obtained from The Jackson Laboratory (Sacramento, Calif.). […] Animals were accustomed to these conditions for at least 2 weeks before experimentation and used at approximately 26 weeks of age.

Description for db/db mice: Male db/db mice homozygous for Lepr^db (6 weeks of age), were obtained from The Jackson Laboratory (Bar Harbor, Me.). Mice were group housed on a normal light/dark cycle (lights on: 07:00-19:00 h) with ad libitum access to a standard pelleted mouse diet and water. Animals were accustomed to these conditions for 2 weeks before experimentation. […] At 10:30 pm on the evening prior to endpoint measurement, mice were placed into clean cages and given free access to water, but not food for a period of 12 hours before the fasting blood glucose measurement. On the final day of the study, animals were dosed as normal, and then underwent a tail cut injury 2 hours prior to measurement of fasting blood glucose, to allow recovery from any stress the procedure might cause. Fasting blood glucose (FBG) was assessed from the animals at 10:30 am using an AlphaTRAK glucometer (Abbott Laboratories, USA). Following the FBG measurement blood was collected from each mouse, using a tail milking technique, into a capillary tube. Capillary tubes were centrifuged in a hematocrit (BD Triac 0200) and the resultant plasma transferred to an eppendorff. This sample, labelled as t=0 hr, was frozen at −80° C. to allow later measurement of insulin. At 11:30 am each animal was dosed with 0.5 g/kg of glucose, then blood glucose was measured at t=15, 30, 60, 90 and 120 minutes after glucose load. At the end of the OGTT blood was collected for a t=2 hr insulin determination as described above.
Fasting blood glucose values and glucose measurements taken during the OGTT were averaged and graphed (GraphPad Prism, GraphPad Software, La Jolla, Calif.). The area under the curve (AUC) was calculated for each individual animal. Plasma insulin levels were determined using an Ultrasensitive Insulin ELISA (ALPCO, Salem, N.H.). […] Insulin data was also represented in GraphPad Prism format. Statistical analysis was performed using one-way ANOVA followed by the appropriate post-test. Significance was accepted when p<0.05. Data are presented as mean and S.E.M.

| SMILES | Cry2 transcripts in liver [1] | liver Per2 expression [1] | HOMA-IR (C57/Bl6J DIO mice [2]) | fasting blood glucose (C57/Bl6J DIO mice [2]) [mg/dL] | plasma insulin at t=0 (C57/Bl6J DIO mice [2]) [ng/mL] | plasma insulin at t=2 hr (C57/Bl6J DIO mice [2]) [ng/mL] | HOMA-IR (db/db mice; 30 mg/kg PO QD 7 days) | plasma insulin at t=0 (db/db mice; 30 mg/kg PO QD 7 days) [ng/mL] | plasma insulin at t=2 hr (db/db mice; 30 mg/kg PO QD 7 days) [ng/mL] | fasting blood glucose (db/db mice; 30 mg/kg PO QD 7 days (positive control)) [mg/dL] | fasting blood glucose (C57/Bl6J DIO mice [3]) [mg/dL] |
| --- | --- | --- | --- | --- | --- | --- | --- | --- | --- | --- | --- |
| O=C1C2CCC(C2)N1CC(O)Cn1c2ccc(F)cc2c2cc(F)ccc21 (stereo not drawn) [Compound 48, 2-(3-(3,6-difluoro-9H-carbazol-9-yl)-2-hydroxypropyl)-2-azabicyclo[2.2.1]heptan-3-one] | decrease | suppression | – | – | – | – | – | – | – | – | – |
| COC1CCCN(CC(O)Cn2c3ccc(F)cc3c3cc(F)ccc32)C1=O (stereo not drawn) [Compound 57, 1-(3-(3,6-difluoro-9H-carbazol-9-yl)-2-hydroxypropyl)-3-methoxypiperidin-2-one] | – | suppression | – | – | – | – | – | – | – | – | – |
| CN(CCOc1ccc(CC2SC(=O)NC2=O)cc1)c1ccccn1 (stereo not drawn) [Rosiglitazone] | – | – | 24.60+/−1.42 units | 153.9 ± 5.05 | 2.70 ± 0.12 | 2.30 ± 0.06 | 50.58+/−3.52 units | 3.05 ± 0.14 | 2.28 ± 0.08 | 280.4 ± 13.66 | 161.1 ± 8.06 |
